One data set deals with HTCs of REF-52 cells. The conditions noted are these: for reduction of MTT signal: 24 hours. On the procedure: 3-(4,5-dimethylthiazol-2-yl)-2,5-diphenyltetrazolium (MTT, M-6494, Invitrogen) was used to quantify cell viability in the HTCs. At predetermined times following drug exposure, MTT was added to each well to achieve 0.5 mg/ml. MTT was left in the wells for 2 hr and then removed. The formazan dye that forms in the cells were then suspended in 500 μl of isopropanol (S77795, Fisher Scientific) containing 0.1 N hydrochloric acid. Two hundred microliters of the formazan solution is then put into a 96-well plate well and read on the Synergy HT plate reader. Absorbance at 570 and 650 nm were recorded and the difference (A570-A650) was used as the absorbance intensity of the formazan.
All chemicals are from Sigma (Sigma-Alrich, St. Louis, Mo.) unless otherwise noted. […] DNP was diluted to 1 M in DMSO and then to 100, 10, and 1 mM in -F/G/P DMEM. Following HTC preconditioning and background force (i.e. pre-drug) measurement, 50 μl of the appropriate drug dilutions were added to each well to achieve the desired treatment concentration. Fifty microliters of -F/G/P DMEM was added to the control wells. Upon drug addition, medium in the wells was mixed by pipetting four times.
Finally to measure the compounds' effects on cellular viability, the assay using 3-(4,5-Dimethylthiazol-2-yl)-2,5-diphenyltetrazolium bromide (MTT) was performed. In cells, the yellow MTT is converted to a purple colored formazan by succinate dehydrogenase and this change can be quantified by light absorbance between 500-600 nm was quantitatively recorded using the plate reader.

In data set [1] the test system is mitochondrial membrane potential in HTCs of REF-52 cells. Nature of the data set: HTC TMRE labeling, mitochondrial potential. Type of data set: cell-based, rat. The conditions noted are these: HTC, TMRE. On the procedure: The ethyl ester of tetramethylrhodamine (TMRE, T-669, Invitrogen, Carlsbad, Calif.) was used to quantify the mitochondrial potential of the HTCs. HTCs were incubated in 100 nM TMRE for 30 min and then in phenol red free 10% FBS DMEM for 60 min. Phenol red free medium was used to prevent interference with TMRE fluorescence reading. Following labeling, HTCs were preconditioned with three stretches and then prior to background force measurement. HTC TMRE signal was then read on a Synergy HT plate reader (Biotek Instruments, Winooski, Vt.). A custom made adapter plate was used to position the tissue molds on the plate-holding rack of the plate reader. Fluorescence signal was read from the bottom using the 543/590 excitation/emission filter set and a gain setting of 50. TMRE fluorescence intensity was also read following each force measurement at predetermined time points after drug treatments.
TMRE is cationic and accumulates in the mitochondria as a function of MMP. […] More detailed investigation of DNP's effect on TMRE accumulation using confocal microscopy improved signal detection in both monolayers and HTCs (FIG. 6C and FIG. 6D).

The test system of data set [2] is hydrogel tissue constructs (HTCs) of REF-52 cells. Nature of the data set: HTC force measurement (Palpator). The conditions noted are these: HTC; for effect on tissue (HTC contractile) force, in words: 3 and 24 hr. Type of data set: cell-based, rat. On the procedure:
Rat embryonic fibroblasts (REF-52) were cultured in Dulbecco's Modified Eagle's Medium (DMEM, MT10013CM, Fisher Scientific, Pittsburgh, Pa.) supplemented with 10% fetal bovine serum (FBS, S11050, Atlanta Biologicals, Lawrenceville, Ga.). Cells were sub-cultured every two to three days. To make hydrogel tissue constructs (HTCs), REF-52 cells (between passages 40 to 70) were dissociated from culture plates by treating with 0.05% trypsin (MT-25-025-CI, Fisher Scientific) for 10 to 15 min. The cells were then centrifuged at 1000 g for 10 min. The trypsin solution was decanted and the cell pellet was re-suspended in 10% FBS DMEM medium. This cell suspension was diluted in HTC tissue solution to achieve a final concentration of 8×10^5 cells per ml. The HTC tissue solution consisted of 10% FBS DMEM, 1 mg/ml of type 1 collagen (354249, BD Biosciences, San Jose, Calif.) in 0.02 N acetic acid, sufficient sodium hydroxide to neutralize the acid in the collagen, and sufficient 5×DMEM to compensate for the volume of collagen and NaOH. To prevent premature collagen polymerization, the HTC tissue solution was kept on ice until its distribution into our custom-made tissue molds (FIG. 3). Each mold contains 8 separate HTC-forming wells with two built-in horizontal support bars. Three hundred microliters of the HTC tissue solution was aliquoted into each well in these molds and then incubated for 30 min at 37° C. and 5% CO2. After the incubation period, […] of 10% FBS DMEM medium was added to each well and the molds were further incubated for 48 hr. In this time, the solution contracted to form HTCs that span the support bars in the wells.
The Palpator™ (as described in U.S. Pat. No. 7,449,306, which is incorporated herein by reference in its entirety) was used to quantify the contractility of the HTCs. The molds were placed on the stage of the Palpator™ which automatically inserted a probe into each well and stretched the individual HTC. The probe was connected to a force transducer which measured the resistance force induced in the HTC in response to stretch and exported the values to a computer for recording. A custom Matlab algorithm was used to process and analyze the force data to report a numerical parameter that is indicative of the active cell force in the HTC. To obtain stable measurements of the HTC contractile force, it was necessary to precondition the HTCs by stretching three times prior to actual force measurement. Preconditioning was not necessary if subsequent force measurements were within 30 min of the previous stretch. HTCs at 24 hr post treatment were always pre-conditioned before force measurement.

For data set [3], the system named is F-actin in HTCs of REF-52 cells. Nature of the data set: F-actin content of HTCs, Alexa-phalloidin, plate reader. The conditions noted are these: HTC treated 24 hours. Type of data set: cell-based, rat. From the text:
FIG. 5A-FIG. 5W. FIG. 5A is a photograph of The Palpator™. The system includes an isometric force transducer (a), probe baths (b), and a hydrogel tissue construct (HTC) stage (c) on a temperature regulator plate (d). FIG. 5B is a photograph showing the x-y-z motion robotic arm which positions the force transducer with attached probe above the HTCs and lowers the probe onto the tissue for force measurement. FIG. 5C is a schematic of the robotic arm with attached force transducer and probe. FIG. 5D is a photograph of the probe positioned 1 mm above the mid-plane of a HTC (a) and then lowered until it first touches (b) and then stretches (c) the tissue. FIG. 5E is a graph showing representative forces recorded during HTC indentation. Arrows a, b, and c show force measurements associated with probe positions shown in (D). […] HTCs were preconditioned, then treated with varying concentrations of the four drugs as indicated. Forces were measured at 3 (f) and 24 hr (g). Force measurements were expressed relative to control, medium treated, HTCs (Fc). […] HTCs treated with drugs for 24 hours were fixed and labeled with Alexa 568 conjugated phalloidin. Fluorescence intensity was read on a plate reader and plotted relative to control, media treated, HTCs (Ic). […] At 3 hr (i-m) and 24 hr (n-r, s-w) post treatment, representative monolayers were fixed and stained with Alexa 568 conjugated phalloidin and DAPI. […] Note the larger scale bar in (g) and (l). Images were captured on a Leica SP5 confocal microscope using a water-immersion 63× objective, scale bar=50 μm.
Tissue force is maintained through the integrity of the cellular cytoskeleton, especially actin and myosin. To quantify amount of F (filamentous)-actin in the HTCs treated with the compounds, the HTCs were stained with Alexa […] conjugated phalloidin. […] This is in agreement with our previous report that CD mediated reduction in tissue force was due to the loss of intact F-actin. However, force reductions by H1152 and DNP were not related to the loss of F-actin. […] By 24 hours, short F-actins were re-distributed within less-spread (FIG. 5O) and binuclear (FIG. 5T) cells.

A further data set has as its system REF-52 cells. The settings on record: for F-actin morphology in cells, microscopy: REF monolayers, 3 hr and 24 hr. On the procedure:
REF-52 cells were plated on 35 mm culture dishes (50,000 cells) in 10% FBS medium (2 ml). Cells are incubated over night and then treated with compounds. […] Cells were incubated with drugs for 24 hours prior to fixing. To fix, treated cells were rinsed once with 2 ml of phosphate buffered saline (PBS, D5652) and then incubated in 1 ml of 4% paraformaldehyde (Sigma) solution (in PBS) for 30 min. Fixed cells are rinsed twice and then stored in 2 ml of PBS.
Fixed REF-52 cells were permeabilized by incubating in 1 ml of 0.1% Triton (BP151, Fisher Scientific) solution (in PBS) for 15 min. Permeabilized cells were rinsed twice with 1 ml TBST buffer and then blocked with 1 ml of 5% goat serum in TBST for 1 hour. One milliliter of 1:200 diluted Alexa 568 conjugated phalloidin (A12380, Invitrogen) in TBST with 2% goat serum was then added to the cells. This staining solution also contained 400 nM of DAPI (D9564). Cells were stained for 30 min and then rinsed twice with TBST. Labeled cells were mounted with Vectashield (Vector Laboratories, Burlingame, Calif.), covered with a cover slide and then sealed with nail polish. The plate was then inverted on to a Leica SP5 confocal microscope (Leica Microsystems, Bannockburn, Ill.) and imaged with 63× water immersion objective. Alexa 568 was excited using the 543 laser line and DAPI was excited using a MaiTai multi-photon laser.

For data set [4], the system named is human epidermoid cell lines. The conditions noted are these: reported; cited from earlier work.
Setting [5] is: 3 hr treatment, read-out: EC50 of tissue force reduction.

Molecules are shown by their SMILES. Entries after “also recorded” stand apart in the source; their conditions may differ. Like-named read-outs stand apart in the source and are kept apart here.

For `C[S+](C)[O-]` [DMSO, dimethyl sulfoxide], in the data set with HTCs of REF-52 cells (rat, 24 h, 10 %), the “formazan absorbance relative to control (A/Ac)” value is 0.11±9×10^−3.

For `Cc1cncc2cccc(S(=O)(=O)N3CCCNC[C@@H]3C)c12` [H-1152], the “effect on mitochondrial potential, in words” value is “limited mitochondrial and viability toxicity” in data set [1] (listed as RKI); “minimal uncoupling activity” in data set [1] (listed as RKI1). For the same compound, the “effect on tissue (HTC contractile) force, in words” value is on record as “dose-dependently reduced tissue force” in data set [2], “very effective at reducing HTC force” in data set [2] (listed as RKI) and “dose-dependently reduced HTC contractile force; also recorded: effectively reduced tissue force” in data set [2] (listed as RKI1). Also, the EC50 in data set [2] (setting [5]) was approximately 100 nM; in data set [2] (time not stated at place, read-out: force-reducing EC50) it was 100 nM. Moreover, in data set [3], the “F-actin content of HTCs (Alexa-phalloidin intensity)” value is recorded as “comparable to controls”. The “F-actin morphology in cells, microscopy” value is given as “did not dramatically affect F-actin morphology” in the data set on REF-52 cells (listed as RKI) and “limited to no effects” in the data set with REF-52 cells (listed as RKI1).

On to `C=C1[C@@H](C)[C@H]2[C@H](Cc3ccccc3)NC(=O)[C@]23[C@H](OC(C)=O)/C=C/[C@@](C)(O)C(=O)[C@@H](C)C/C=C/[C@H]3[C@@H]1O` [CD, Cytochalasin D], for which the LD50 in data set [4] was 5 to 30 µM. For the same compound, the “reduction of MTT signal” value with HTCs of REF-52 cells (0.2 μM) and with HTCs of REF-52 cells (2 μM) was 40% throughout. Also, the “effect on tissue (HTC contractile) force, in words” value in data set [2] was “dose-dependently reduced HTC contractile force; also recorded: dose-dependently reduced tissue force; also recorded: very effective at reducing HTC force”. Moreover, the EC50 in data set [2] (setting [5]) was approximately 100 nM. The “F-actin content of HTCs (Alexa-phalloidin intensity)” value in data set [3] is recorded as “significantly reduced”; in data set [3] (listed as Cytochalasin D), “reduced cellular F-actin”. The “cytotoxicity signs in cell monolayers (confluency, nuclei, shrinkage)” value with REF-52 cells (24 hours) was “cytotoxicity was evident”. Moreover, the “F-actin morphology in cells, microscopy” value in the data set on REF-52 cells is “extensive actin depolymerization by 3 hr; also recorded: extensive disruption of F-actin as early as 3 hours”.

One may read the EC50 as the midpoint of the concentration-response curve.

The values above are taken from patent publication US10732174B2, “Three dimensional tissues for high-throughput assays” (INVIVOSCIENCES, INC., priority 2008, dated 2020).
